Source: patent US10543227B2, “Hair growth composition” (RIKEN, priority 2015, dated 2020)
Several values for one entry are separate records, joined by “and”; a condition that tells them apart may be missing. Identical values can stand only once. Like-named read-outs stand apart in the source and are kept apart here.

Tests used:
[1] = system: hair-shaved back sites of C3H/HeN mice; test: Telogen phase model, Test 1: hair growth at hair-shaved back sites; type: in vivo
Procedure: (§1) C3H/HeN mice (Charles River Japan (Kanagawa, Japan)) of 6 weeks old, the hair cycle of which repeatedly proceeds anagen phase, catagen phase and telogen phase in this order, were raised for a week for acclimatization. At the age of 7 weeks (the telogen phase is started at the age), hairs on the back were shaved off by an electric clipper and a shaver. After the mice were raised overnight, application of a test solution (200 μL per site) to the hair-shaved site was initiated.
(§2) In both of Test 1 and Test 2, each test solution was applied to the hair-shaved back sites of 5-12 mice per group, daily at a frequency of once a day. […] Alternatively, where needed, the hair growth effects were evaluated by calculating % hair-growth areas.
(§3) The evaluation results of Test 1 and Test 2 are shown in Table 1 and Table 2, respectively. Evaluation results were shown by scores based on the following criteria: when the hair-growth area calculated was 0% or more and less than 10%, score 1 was given; when the hair-growth area calculated was 10% or more and less than 25%, score 2 was given, when the hair-growth area calculated was 25% or more and less than 50%, score 3 was given; when the hair-growth area calculated was 50% or more and less than 75%, score 4 was given; and when the hair-growth area calculated was 75% or more, score 5 was given.

[2] = system: hair-shaved back sites of C3H/HeN mice; test: Telogen phase model, Test 2: hair growth at hair-shaved back sites; type: in vivo
Procedure: as §1, §2, §3

[3] = Procedure: (§4) Each test drug was applied to hair-shaved back sites (in an amount of 200 μL per site) of 5-6 animals per group, daily at a frequency of once a day. At 10 minutes and 30 minutes after the application on Day 20, average body surface temperature (° C.) was measured. […] Body surface temperature (° C.) was measured by photographing a hair-shaved site and its periphery using an infrared thermography camera (Thermoshot F30S (NEC/Avio, Tokyo, Japan)). The average body surface temperature per area was calculated using InfRec Analyzer NS9500 Standard (NEC/Avio, Tokyo, Japan).
These animals were subjected to drawing blood from the hearts on the final week for biochemical examination. Each blood was allowed to stand still on ice for 30 minutes and centrifuged twice at 10,000 rpm for 15 minutes (at 4° C.). The supernatants (i.e., sera) were transferred to new containers and stored in a freezer (at −80° C.). The sera were analyzed using a clinical chemistry analyzer for animal (FUJI DRI-CHEM 3500V) and special slides to obtain the values of [GPT (glutamate-pyruvate transaminase), GOT (glutamate oxaloacetate transaminase), GGT (γ-glutamyl transferase), LDH (lactate dehydrogenase), CHE (cholinesterase), CPK (creatine phosphokinase), ALB (albumin), TP (total protein), TCHO (total cholesterol), and TG (triglyceride)].

mouse skin tissue [4] = test: Histological examination of skin tissue, anagen phase model (Example 4); type: in vivo, C3H/HeN mice; settings: Positive control 5% MXD; after 24 days application; n = 8
Procedure: Paraffin sections were prepared, stained with hematoxylin/eosin (HE), and microscopically observed. Hair root density and anagen phase/telogen phase ratio were evaluated.

mouse skin tissue [5] = settings: positive control, 5% MXD
Procedure: Specifically, the skin tissue was taken and fixed in 10% neutral buffered formalin. Paraffin sections thereof were prepared, stained with HE, and microscopically observed.

[6] = Average body surface temperature by infrared thermography (Example 2); settings: Sodium thiosulfate 10% (w/v)
Procedure: as §4

[7] = Minoxidil 1% (w/v), Day 54 after initiation of application
[8] = Minoxidil 1%, serum, final week, N=5
[9] = Sodium thiosulfate 10% (w/v), Day 69 after initiation of application
[10] = Sodium thiosulfate 10%, serum, final week, N=5

Compound: Nc1cc(N2CCCCC2)nc(N)[n+]1[O-] [Minoxidil, minoxidil, reference compound]
- hair growth score ([1]; Minoxidil 1% (w/v), Day 26 after initiation of application): 0
- hair growth score ([1]; Minoxidil 1% (w/v), Day 32 after initiation of application): 0
- hair growth score ([1]; Minoxidil 1% (w/v), Day 40 after initiation of application): 0
- hair growth score ([1]; Minoxidil 1% (w/v), Day 47 after initiation of application): 0
- hair growth score [1, 7]: 0
- hair growth score ([1]; Minoxidil 1% (w/v), Day 62 after initiation of application): 0
- hair growth score ([1]; Minoxidil 1% (w/v), Day 69 after initiation of application): 0
- hair growth score ([1]; Minoxidil 1% (w/v), Day 76 after initiation of application): 0
- hair growth score ([1]; Minoxidil 1% (w/v), Day 83 after initiation of application): 0
- hair growth score ([1]; Minoxidil 1% (w/v), Day 90 after initiation of application): 0
- hair growth score ([2]; Minoxidil 1% (w/v), Day 27 after initiation of application): 0
- hair growth score ([2]; Minoxidil 1% (w/v), Day 34 after initiation of application): 0
- hair growth score ([2]; Minoxidil 1% (w/v), Day 41 after initiation of application): 0
- hair growth score ([2]; Minoxidil 1% (w/v), Day 48 after initiation of application): 0
- hair growth score [2, 7]: 0
- hair growth score ([2]; Minoxidil 1% (w/v), Day 61 after initiation of application): 0
- CHE [3, 8]: 16.6 ± 1.5 U/l
- TG [3, 8]: 294.0 ± 44.1 mg/dL
- TP [3, 8]: 4.7 ± 0.5 g/dL
- ALB ([3]; mouse, in vivo): 2.2 ± 0.1 g/dL
- CPK ([3]; mouse, in vivo): 321.6 ± 231.5 U/l
- GGT ([3]; mouse, in vivo): 1.0 ± 0.0 U/l
- GOT (AST) ([3]; mouse, in vivo): 66.8 ± 40.2 U/l
- LDH ([3]; mouse, in vivo): 237.8 ± 101.6 U/l
- TCHO ([3]; mouse, in vivo): 167.2 ± 19.3 mg/dL
- Anagen phase/telogen phase (mouse skin tissue [4]): 0.11 ± 0.05
- Hair root density (mouse skin tissue [4]): 2.04 ± 0.32 /mm
- Subcutaneous tissue (mouse skin tissue [4]): 38.4 ± 9 µm
- tissue abnormality (HE-stained skin sections) (mouse skin tissue [5]): no individuals having tissue abnormality were found

Compound: O=S([O-])([O-])=S.[Na+].[Na+] [Sodium thiosulfate, sodium thiosulfate]
- hair growth score ([1]; Sodium thiosulfate 1% (w/v), Day 26 after initiation of application): 0
- hair growth score ([1]; Sodium thiosulfate 1% (w/v), Day 32 after initiation of application): 0
- hair growth score ([1]; Sodium thiosulfate 1% (w/v), Day 40 after initiation of application): 0
- hair growth score ([1]; Sodium thiosulfate 1% (w/v), Day 47 after initiation of application): 0
- hair growth score ([1]; Sodium thiosulfate 1% (w/v), Day 54 after initiation of application): 0
- hair growth score ([1]; Sodium thiosulfate 1% (w/v), Day 62 after initiation of application): 0
- hair growth score ([1]; Sodium thiosulfate 1% (w/v), Day 69 after initiation of application): 0
- hair growth score ([1]; Sodium thiosulfate 1% (w/v), Day 76 after initiation of application): 0
- hair growth score ([1]; Sodium thiosulfate 1% (w/v), Day 83 after initiation of application): 0
- hair growth score ([1]; Sodium thiosulfate 1% (w/v), Day 90 after initiation of application): 0
- hair growth score ([1]; Sodium thiosulfate 2% (w/v), Day 26 after initiation of application): 0
- hair growth score ([1]; Sodium thiosulfate 2% (w/v), Day 32 after initiation of application): 0
- hair growth score ([1]; Sodium thiosulfate 2% (w/v), Day 40 after initiation of application): 0
- hair growth score ([1]; Sodium thiosulfate 2% (w/v), Day 47 after initiation of application): 0
- hair growth score ([1]; Sodium thiosulfate 2% (w/v), Day 54 after initiation of application): 0
- hair growth score ([1]; Sodium thiosulfate 2% (w/v), Day 62 after initiation of application): 0
- hair growth score ([1]; Sodium thiosulfate 2% (w/v), Day 69 after initiation of application): 0
- hair growth score ([1]; Sodium thiosulfate 2% (w/v), Day 76 after initiation of application): 0
- hair growth score ([1]; Sodium thiosulfate 2% (w/v), Day 83 after initiation of application): 0
- hair growth score ([1]; Sodium thiosulfate 2% (w/v), Day 90 after initiation of application): 0
- hair growth score ([1]; Sodium thiosulfate 2% (w/v), Day 97 after initiation of application): 0
- hair growth score ([1]; Sodium thiosulfate 4% (w/v), Day 26 after initiation of application): 0
- hair growth score ([1]; Sodium thiosulfate 4% (w/v), Day 32 after initiation of application): 0
- hair growth score ([1]; Sodium thiosulfate 4% (w/v), Day 40 after initiation of application): 0
- hair growth score ([1]; Sodium thiosulfate 4% (w/v), Day 47 after initiation of application): 0
- hair growth score ([1]; Sodium thiosulfate 4% (w/v), Day 54 after initiation of application): 0
- hair growth score ([1]; Sodium thiosulfate 10% (w/v), Day 26 after initiation of application): 0
- hair growth score ([1]; Sodium thiosulfate 10% (w/v), Day 32 after initiation of application): 0
- hair growth score ([1]; Sodium thiosulfate 10% (w/v), Day 40 after initiation of application): 0
- hair growth score [1, 9]: 2 (when the hair-growth area calculated was 10% or more and less than 25%, score 2 was given) and 3 (when the hair-growth area calculated was 25% or more and less than 50%, score 3 was given)
- time point when hairs start growing (Kaplan-Meier curves) ([1]; as the concentration of sodium thiosulfate increases, Tests 1 and 2, FIGS. 2 and 3): new hairs tend to start growing from the earlier stage
- start of new hair growth and hair-growth area compared to the negative control ([1]; sodium thiosulfate alone, 4% (w/v) or more): started growing at early stage after the application
- hair growth score ([2]; Sodium thiosulfate 10% (w/v), Day 27 after initiation of application): 0
- hair growth score ([2]; Sodium thiosulfate 10% (w/v), Day 34 after initiation of application): 0
- hair growth score [2, 9]: 2 (when the hair-growth area calculated was 10% or more and less than 25%, score 2 was given) and 4 (when the hair-growth area calculated was 50% or more and less than 75%, score 4 was given) and 3 (when the hair-growth area calculated was 25% or more and less than 50%, score 3 was given)
- hair growth score ([2]; Sodium thiosulfate 10% (w/v), Day 90 after initiation of application): 3 (when the hair-growth area calculated was 25% or more and less than 50%, score 3 was given) and 5 (when the hair-growth area calculated was 75% or more, score 5 was given) and 4 (when the hair-growth area calculated was 50% or more and less than 75%, score 4 was given)
- average body surface temperature ([6]; 10 minutes after the application on Day 20): 36.6 °C and 36.3 °C and 35.8 °C and 35.5 °C and 36.7 °C
- average body surface temperature ([6]; 30 minutes after the application on Day 20): 37.1 °C and 36.6 °C and 37 °C and 37.2 °C
- ALB [3, 10]: 2.2 ± 0.1 g/dL
- CHE [3, 10]: 19.8 ± 3.1 U/l
- CPK [3, 10]: 608.4 ± 642.5 U/l
- GGT [3, 10]: 1.0 ± 0.0 U/l
- GOT (AST) [3, 10]: 83.2 ± 46.3 U/l
- GPT (ALT) [3, 10]: 20.8 ± 2.3 U/l
- LDH [3, 10]: 277.4 ± 142.6 U/l
- TCHO [3, 10]: 155.0 ± 10.1 mg/dL
- TG [3, 10]: 296.8 ± 95.5 mg/dL
- TP [3, 10]: 4.8 ± 0.3 g/dL
